Measured values taken from US11718585B2, “Bis-cyclic guanidines as antibacterial agents” (University of South Florida, priority 2017, dated 2023).

Legend:
six bacteria strains = experiment: MIC, summary statements over the panel of tested bacteria; type: cell-based
Procedure: (§1) Minimum Inhibitory Concentrations (MICs) against Bacteria. The antimicrobial activity of the compounds was tested on the following six bacteria strains: K. pneumoniae (ATCC 13383), P. aeruginosa (ATCC27853), E. coli (ATCC 25922), vancomycin-resistant Enterococcus faecalis (ATCC 700802), Methicillin-resistant S. aureus (MRSA, ATCC 33591), Methicillin-resistant S. epidermidis (MRSE, RP62A). The procedures were followed as reported previously (Hancock et al., Immunobiology 2006, 211, 315-322). Briefly, a single colony of each bacterium was inoculated in 3 mL TSB medium and incubated overnight at 37° C. Then the bacteria culture was diluted at 1:100 and the bacteria were allowed to grow to mid-logarithmic phase. Next, 50 μL of 2-fold serial dilutions of compounds (0.1-25 μg/mL) were added the 96-well plate containing aliquots of 50 μL of bacteria suspension (1×10^6 CFU/mL) in each well. The mixture was incubated at 37° C. for 16 h, and their absorption at 600 nm wavelength was read on a Biotek Synergy HT microtiter plate reader. […] The experiments were repeated at least three times with duplicates each time. HC50 means the concentration causing 50% hemolysis.

E. coli [1] = experiment: Fluorescence microscopy (DAPI/PI) of bacterial membranes, E. coli; type: cell-based; conditions: 10 μg/mL, 2 h
Procedure: (§2) Fluorescence microscopy studies were conducted to evaluate the ability of compound 12 to compromise membranes of S. aureus (Gram-positive bacterium) and E. coli (Gram-negative bacterium). Fluorescent agent 4′,6-diamidino-2-phenylindole (DAPI) was used to stain membranes of bacterial cells with blue fluorescence regardless of cell viability, and the red fluorescence of propidium iodide (PI) due to the DNA intercalation was used to stain impaired membranes. After MRSA and E. Coli grew to mid-logarithmic phase, the compound 12 was incubated with the bacteria at 37° C. for 2 h. The mixture was then centrifuged at 5000 rpm for 15 min. The cell pellets were washed with the PBS buffer for three times, and incubated with PI (5 μg/mL) and DAPI (10 μg/mL) for 15 min sequentially on ice in the dark. The mixture was then centrifuged and the pellets were washed with the PBS buffer. Next, 10 μL of the samples were placed on chamber slides and observed under Zeiss Axio Image Zloptical microscope using 100× oil-immersion objective.

E. coli [2] = experiment: Drug-resistance study, 14 passages, E. coli; type: cell-based; conditions: incubated at ½ MIC every day
Procedure: (§3) Bacterial resistance tests were conducted using compound 12. The compound was incubated with either MRSA or E. Coli in the well at the concentration of half-MIC (½ MIC, 10^6 CFU/ml) every day and tested for their activity through 14 successive passages.

E. coli [3] = experiment: Time-kill study; type: cell-based; conditions: for time to completely remove/kill all bacteria: 12.5 μg/mL
Procedure: The killing activity was monitored for the first 2 h. The concentrations for compound 11 were 2×MIC, 4×MIC, and 8×MIC, respectively.
Time-kill studies were conducted to investigate the bacterial killing kinetics of compounds 11 and 12 by using E. Coli. Briefly, the bacteria […] grew to mid-logarithmic phase in TSB medium, from which the suspension (10^6 CFU/ml) was made. The suspension was incubated with different concentrations of 11 or 12 for 10 min, 30 min, 1 h and 2 h respectively. The mixtures were diluted by 10^2 to 10^4 fold and spread on TSB agar plates. After incubation at 37° C. overnight, the colonies on the plates were counted and plotted against the incubation time. […] Cell colonies were counted in agar plates at 12.5, 25, and 50 μg/mL. Compound 11 at the concentration of 12.5 or 25 μg/mL completely removed all bacteria in 2 hours, and at 50 μg/mL it completely removed bacteria in 0.5 hour. Compound 12 killed E. Coli completely in 0.5 hour at the concentration of 12.5 μg/mL.

S. aureus = experiment: Fluorescence microscopy (DAPI/PI) of bacterial membranes, S. aureus; type: cell-based; conditions: 10 μg/mL, 2 h
Procedure: as §2

MRSA = experiment: Drug-resistance study, 14 passages, MRSA; type: cell-based, S. aureus; conditions: incubated at ½ MIC every day
Procedure: as §3

E. coli (ATCC 25922) = experiment: Minimum inhibitory concentration (MIC) against E. coli; type: cell-based; conditions: Escherichia coli, ATCC25922; Gram −; 16 h, 37° C.
Procedure: as §1

[4] = test system: Methicillin-resistant S. aureus (MRSA, ATCC 33591); experiment: MIC against MRSA; type: cell-based; conditions: Staphylococcus aureus; Gram +; 16 h, 37° C.
Procedure: as §1

[5] = test system: P. aeruginosa (ATCC27853); experiment: MIC against P. aeruginosa; type: cell-based
Procedure: as §1

[6] = test system: K. pneumoniae (ATCC 13383); experiment: MIC against K. pneumoniae; type: cell-based; conditions: Klebsiella pneumoniae, ATCC13383; Gram −; 16 h, 37° C.
Procedure: as §1

[7] = test system: Methicillin-resistant S. epidermidis (MRSE, RP62A); experiment: MIC against MRSE; type: cell-based; conditions: Staphylococcus epidermidis, Gram +, 16 h, 37° C.
Procedure: as §1

[8] = test system: vancomycin-resistant Enterococcus faecalis (ATCC 700802); experiment: MIC against VRE; type: cell-based; conditions: Gram +; 16 h, 37° C.
Procedure: as §1

[9] = test system: human red blood cells (hRBCs); experiment: Hemolytic assay; type: cell-based; conditions: concentration causing 50% hemolysis, 37° C., 1 h
Procedure: Hemolytic assays. The freshly drawn, K2EDTA treated human red blood cells (hRBCs) were washed with 1×PBS buffer, and centrifuged at 3500 rpm for 10 min. The step was repeated until the supernatant became clear. The supernatant was removed, and the RBCs were diluted into 5% v/v suspension. 50 μL of the suspension was incubated with 50 μL of compounds of different concentrations at 37° C. for 1 h. The mixture was centrifuged at 3500 rpm for 10 min. Subsequently, to 30 μL of the supernatant 100 μL PBS was added, and the absorbance of the mixture at 540 nm was read on a Biotek Synergy HT plate reader. The positive control was 2% Triton X-100, and the negative control was 1×PBS alone. The hemolysis activity was calculated by the formula % hemolysis=(Abssample−AbsPBS)/(AbsTriton−AbsPBS)×100%. The experiment was repeated at least three times with duplicates each time.

CCCCCCCCN1C(=N)N(CC(=O)Nc2ccc(NC(=O)CN3C[C@H](Cc4ccccc4)N(CCCCCCCC)C3=N)cc2)C[C@@H]1Cc1ccccc1 [Compound 17] was tested, and the “antibacterial activity against the tested bacteria (in words)” value (“antibacterial activity” for short) (six bacteria strains) was “decreased activity”.
In the case of CCCCCCCCN1C(=N)N(CC(=O)Nc2cccc(NC(=O)CN3C[C@H](Cc4ccccc4)N(CCCCCCCC)C3=N)c2)C[C@@H]1Cc1ccccc1 [Compound 18], the “antibacterial activity” value (six bacteria strains) was “decreased activity”.
For CCCCCCN1C(=N)N(CC(=O)Nc2cccc(NC(=O)CN3C[C@H](Cc4ccccc4)N(CCCCCC)C3=N)c2)C[C@@H]1Cc1ccccc1 [Compound 12], the “membrane disruption (red fluorescence under the PI channel)” value (E. coli [1]) was “membranes of these bacteria were disrupted”, the “MIC after 14 passages” value (E. coli [2]) was “virtually constant” and the “time to completely remove/kill all bacteria” value (E. coli [3]) was 0.5 h. For the same molecule, the “membrane disruption (red fluorescence under the PI channel)” value (S. aureus) was “membranes of these bacteria were disrupted”, the “antibacterial activity” value (six bacteria strains) was “potent and broad-spectrum activity” and the “MIC after 14 passages” value (MRSA) was “virtually constant”.
In the case of CCCCCCN1C(=N)N(CC(=O)NCCCOCCOCCOCCCNC(=O)CN2C[C@H](Cc3ccccc3)N(CCCCCC)C2=N)C[C@@H]1Cc1ccccc1 [Compound 16], the MIC (E. coli (ATCC 25922)) was 1.5 to 3 µg/mL, the MIC [4] was 0.75 µg/mL and the MIC ([5]; Pseudomonas aeruginosa, ATCC27853, Gram −, 16 h, 37° C.) was > 25 µg/mL. For the same molecule, the MIC [6] was > 25 µg/mL, the MIC [7] was 1.5 µg/mL and the “antibacterial activity” value (six bacteria strains) was “reduced activity”. The MIC [8] was 6 to 12 µg/mL and the “Hemolysis (HC50)” value [9] was 200 µg/mL.
In the case of CCCCCCN1C(=N)N(CC(=O)Nc2ccc(NC(=O)CN3C[C@H](Cc4ccccc4)N(CCCCCC)C3=N)cc2)C[C@@H]1Cc1ccccc1 [Compound 11], the “time to completely remove/kill all bacteria” value (E. coli [3]) was 2 h, the “time to completely remove bacteria” value (E. coli [3]; 50 μg/mL) was 0.5 h and the “antibacterial activity” value (six bacteria strains) was “potent and broad-spectrum activity”.
For N=C1N(CC(=O)Nc2cccc(NC(N)=O)c2)C[C@H](Cc2ccccc2)N1CCCc1ccccc1 [Compound 8], the “antibacterial activity” value (six bacteria strains) was “negligible activity”.
For CCCCCCN1C(=N)N(CC(=O)NCCCCNC(=O)CN2C[C@H](Cc3ccccc3)N(CCCCCC)C2=N)C[C@@H]1Cc1ccccc1 [Compound 13], the MIC (E. coli (ATCC 25922)) was 0.75 to 1.5 µg/mL and the “activity against P. aeruginosa (in words)” value [5] was “reduced activity”.
For CCCCCCN1C(=N)N(CC(=O)NCCCCCCCCNC(=O)CN2C[C@H](Cc3ccccc3)N(CCCCCC)C2=N)C[C@@H]1Cc1ccccc1 [Compound 15], the “activity against P. aeruginosa (in words)” value [5] was “reduced activity”.
With CCCCCCN1C(=N)N(CC(=O)NCCCCCCNC(=O)CN2C[C@H](Cc3ccccc3)N(CCCCCC)C2=N)C[C@@H]1Cc1ccccc1 [Compound 14] the “activity against P. aeruginosa (in words)” value [5] was “reduced activity”.
For CCCCCCN1C(=N)N(CC(=O)Nc2cccc(NC(=O)CN3C[C@H](CC(C)C)N(CCCCCC)C3=N)c2)C[C@@H]1CC(C)C [Compound 23], the MIC [4] was 0.75 to 1.5 µg/mL and the “antibacterial activity” value (six bacteria strains) was “slightly less effective”.
N#CNc1cccc(NC(=O)CN2C[C@H](Cc3ccccc3)N(CCCc3ccccc3)C2=N)c1 [Compound 7] was tested, and the “antibacterial activity” value (six bacteria strains) was “negligible activity”.
